# Source: US7045300B2, “Lectin protein prepared from Maackia fauriei, process for preparing the same and the use thereof” (priority 2001, dated 2006)
# Tested on: fetuin
# Test: Comparison of binding specificity of lectins, hemagglutination inhibition by fetuin
# Assay type: biochemical
# Conditions: 6.25% human B type erythrocyte
# Procedure: (§1) The binding specificity of the MFA with Wheat germ agglutinin, Maackia amurensis aggulutinin, Limulus polyphemus lectin, and Sambucus niger agglutinin which have already been reported to recognize N-acetylneuraminic acid was determined by a hemagglutination inhibition response using 10 mM of N-acetylneuraminic acid and N-acetylneuraminic acid-binding fetuin.
# (§2) The negative sign (−) means no hemagglutination inhibition up to 10 mM
row,Molecule,"Minimum hemagglutination-inhibition concentration, Fetuin [µM]"
1,Wheat germ agglutinin,207

# Tested on: not listed separately
# Test: Comparison of binding specificity of lectins, hemagglutination inhibition by N-acetylneuraminic acid
# Assay type: biochemical
# Conditions: 6.25% human B type erythrocyte; tested up to 10 mM
# Procedure: as §1, §2
row,Molecule,"Minimum hemagglutination-inhibition concentration, N-acetylneuraminic acid"
1,Wheat germ agglutinin,— (The negative sign (−) means no hemagglutination inhibition up to 10 mM)

# Tested on: lectin MFA
# Test: Hemagglutination-inhibition assay of the lectin MFA with monosaccharide, disaccharide and glycoprotein
# Assay type: biochemical, Maackia fauriei
# Conditions: at 10 mM
row,Molecule,hemagglutination inhibition
1,CC(=O)N[C@H]1C(O)O[C@H](CO)[C@@H](O[C@@H]2O[C@H](CO)[C@H](O)[C@H](O)[C@H]2O)[C@@H]1O (some centres unmarked) [N-acetylactosamine],did not show hemagglutination inhibition

# Tested on: lectin MFA
# Test: as above
# Assay type: biochemical, Maackia fauriei
# Parameters: key to Minimum erythrocyte agglutination inhibition concentration: —: The negative sign (−) means that there is no hemagglutination-inhibition
# Conditions: 6.25% mouse erythrocyte; lectin MFA diluted 128-fold
# Procedure: In order to confirm that the lectin MFA of the present invention recognizes N-acetylneuraminic acid, hemagglutination-inhibition reaction was performed using monosaccharide, disaccharide and glycoprotein. 50 μl of a 128-fold diluted solution of lectin MFA in 0.15 M NaCl and 50 μl of each 1 mg/ml solution of monosaccharides (e.g., β-D-glucose, D-galactose, L-fucose, D-mannose, N-acetylneuraminic acid, N-glycolylneuraminic acid, N-acetyl-D-glucosamine, N-acetyl-D-galactosamine and methyl-α-D-glucopyranoside), disaccharide (e.g., α-lactose, β-lactose, D-lactose, β-gentiobiose, maltose, D-raffinose or D-cellobiose) and glycoprotein (e.g., fetuin and asialofetuin) in 0.15 M NaCl were added to the each well of a 96-well microplate. After the reaction for one hour or more at room temperature, 50 μl of the erythrocyte suspended in 0.15 M NaCl was added to each well and reacted for one hour at room temperature.
# The negative sign (−) means that there is no hemagglutination-inhibition. […] NeuGc and NeuAc represent N-glycolylneuraminic acid and N-acetylneuraminic acid, respectively.
row,Molecule,Minimum erythrocyte agglutination inhibition concentration [mM]
1,CC(=O)N[C@H]1[C@H]([C@H](O)[C@H](O)CO)OC(O)(C(=O)O)C[C@@H]1O (some centres unmarked) [N-acetylneuraminic acid],10.0
2,"Fetuin: glycoprotein containing N-acetylneuraminic acid (protein, UniProt P12763 19-359, looked up) Alpha-2-HS-glycoprotein: IPLDPVAGYKEPACDDPDTEQAALAAVDYINKHLPRGYKHTLNQIDSVKVWPRRPTGEVYDIEIDTLETTCHVLDPTPLANCSVRQQTQHAVEGDCDIHVLKQDGQFSVLFTKCDSSPDSAEDVRKLCPDCPLLAPLNDSRVVHAVEVALATFNAESNGSYLQLVEISRAQFVPLPVSVSVEFAVAATDCIAKEVVDPTKCNLLAEKQYGFCKGSVIQKALGGEDVRVTCTLFQTQPVIPQPQPDGAEAEAPSAVPDAAGPTPSAAGPPVASVVVGPSVVAVPLPLHRAHYDLRHTFSGVASVESSSGEAFHVGKTPIVGQPSIPGGPVRLCPGRIRYFKI",0.0052

# Same assay, conditions: 6.25% mouse erythrocyte; lectin MFA diluted 128-fold; dash = no inhibition
row,Molecule,Minimum erythrocyte agglutination inhibition concentration
1,OC[C@H]1O[C@@H](O[C@H]2[C@H](O)[C@@H](O)[C@H](O)O[C@@H]2CO)[C@H](O)[C@@H](O)[C@@H]1O [D-cellobiose],—
2,O=C[C@H](O)[C@@H](O)[C@@H](O)[C@H](O)CO [D-galactose],—
3,OC[C@H]1O[C@@H](O[C@H]2[C@H](O)[C@@H](O)C(O)O[C@@H]2CO)[C@H](O)[C@@H](O)[C@H]1O (stereo partly drawn) [D-lactose],—
4,O=C[C@@H](O)[C@@H](O)[C@H](O)[C@H](O)CO [D-mannose],—
5,OC[C@H]1O[C@H](OC[C@H]2O[C@H](O[C@]3(CO)O[C@H](CO)[C@@H](O)[C@@H]3O)[C@H](O)[C@@H](O)[C@@H]2O)[C@H](O)[C@@H](O)[C@H]1O [D-raffinose],—
6,C[C@H](O)[C@@H](O)[C@@H](O)[C@H](O)C=O [L-fucose],—
7,OC[C@H]1O[C@H](O[C@H]2[C@H](O)[C@@H](O)[C@H](O)O[C@@H]2CO)[C@H](O)[C@@H](O)[C@@H]1O [Maltose],—
8,CO[C@H]1O[C@H](CO)[C@@H](O)[C@H](O)[C@H]1O [Methyl-α-D-glucopyranoside],—
9,CC(=O)N[C@H]1C(O)O[C@H](CO)[C@H](O)[C@@H]1O (stereo partly drawn) [N-acetyl-D-galactosamine],—
10,CC(=O)N[C@H]1C(O)O[C@H](CO)[C@@H](O)[C@@H]1O (stereo partly drawn) [N-acetyl-D-glucosamine],—
11,O=C(CO)N[C@H]1[C@H]([C@H](O)[C@H](O)CO)OC(O)(C(=O)O)C[C@@H]1O (some centres unmarked) [N-glycolylneuraminic acid],—
12,OC[C@H]1O[C@@H](O[C@H]2[C@H](O)[C@@H](O)[C@@H](O)O[C@@H]2CO)[C@H](O)[C@@H](O)[C@H]1O [α-lactose],—
13,OC[C@H]1O[C@@H](O)[C@H](O)[C@@H](O)[C@@H]1O [β-D-glucose],—
14,OC[C@H]1O[C@@H](OC[C@H]2O[C@@H](O)[C@H](O)[C@@H](O)[C@@H]2O)[C@H](O)[C@@H](O)[C@@H]1O [β-gentiobiose],—
15,OC[C@H]1O[C@@H](O[C@H]2[C@H](O)[C@@H](O)[C@H](O)O[C@@H]2CO)[C@H](O)[C@@H](O)[C@H]1O [β-lactose],—
16,"Asialofetuin: glycoprotein tested as hemagglutination inhibitor (protein, UniProt P12763 19-359, looked up, desialylated) Alpha-2-HS-glycoprotein: IPLDPVAGYKEPACDDPDTEQAALAAVDYINKHLPRGYKHTLNQIDSVKVWPRRPTGEVYDIEIDTLETTCHVLDPTPLANCSVRQQTQHAVEGDCDIHVLKQDGQFSVLFTKCDSSPDSAEDVRKLCPDCPLLAPLNDSRVVHAVEVALATFNAESNGSYLQLVEISRAQFVPLPVSVSVEFAVAATDCIAKEVVDPTKCNLLAEKQYGFCKGSVIQKALGGEDVRVTCTLFQTQPVIPQPQPDGAEAEAPSAVPDAAGPTPSAAGPPVASVVVGPSVVAVPLPLHRAHYDLRHTFSGVASVESSSGEAFHVGKTPIVGQPSIPGGPVRLCPGRIRYFKI",—

# Same assay, conditions: starting from 1 mg/ml solution of each carbohydrate; 128-fold diluted lectin MFA
row,Molecule,inhibition of agglutination
1,CC(=O)N[C@H]1[C@H]([C@H](O)[C@H](O)CO)OC(O)(C(=O)O)C[C@@H]1O (some centres unmarked) [N-acetylneuraminic acid],inhibited the agglutination
2,"Fetuin: glycoprotein containing N-acetylneuraminic acid (protein, UniProt P12763 19-359, looked up) Alpha-2-HS-glycoprotein: IPLDPVAGYKEPACDDPDTEQAALAAVDYINKHLPRGYKHTLNQIDSVKVWPRRPTGEVYDIEIDTLETTCHVLDPTPLANCSVRQQTQHAVEGDCDIHVLKQDGQFSVLFTKCDSSPDSAEDVRKLCPDCPLLAPLNDSRVVHAVEVALATFNAESNGSYLQLVEISRAQFVPLPVSVSVEFAVAATDCIAKEVVDPTKCNLLAEKQYGFCKGSVIQKALGGEDVRVTCTLFQTQPVIPQPQPDGAEAEAPSAVPDAAGPTPSAAGPPVASVVVGPSVVAVPLPLHRAHYDLRHTFSGVASVESSSGEAFHVGKTPIVGQPSIPGGPVRLCPGRIRYFKI",inhibited the agglutination
